Assay results reported in patent US6407288B1, “Naphthylsalicylanilides as antimicrobial and antiinflammatory agents” (The Research Foundation of State University of New York, priority 2000, dated 2002).
Converted amounts (≈) assume the structure as drawn.

Test system: Str. pyo
Experiment: Mean Streptococcus MIC
Format: cell-based
Conditions: Streptococcus; Table 5, mean
Outline: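 Modified NCCLS broth microdilution in duplicate: 10 μL inoculum from cultures diluted to about 1×10^8 CFU/mL, drug 50 to 0.05 μg/assay diluted from DMSO stock. Full-strength BHI for aerobes, supplemented half-strength BHI under 5% CO2/10% H2/N2 for anaerobes, 24–48 h; MIC as lowest concentration without visible growth.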

| SMILES | MIC [µg/mL] |
| --- | --- |
| N#Cc1cccc(NC(=O)c2cc(C(=O)c3cccc4ccccc34)ccc2O)c1 [NA1mC] | 16.7 (≈ 42.5 µM) |
| O=C(Nc1cccc(C(F)(F)F)c1)c1cc(C(=O)c2cccc3ccccc23)ccc1O [NA1mF] | 1 (≈ 2.3 µM) |
